In patent US20240308973A1, “PHOSPHODIESTERASE 3 (PDE3) INHIBITORS” (Zoetis Services LLC, priority 2023, published 2024):

Target: dog PDE3A recombinant enzyme (Canis lupus familiaris, UniProt A0A8I3NYE0)
Assay: cPDE3A assay (fluorescent polarization)
Assay type: biochemical
Details: canine PDE3A, read-out: cPDE3 Inhibition (IC50)
Method: cPDE3A Assay (Fluorescent Polarization)
The canine PDE3A assay kit was purchased from BPS Bioscience (San Diego, CA) which included dog PDE3A recombinant enzyme, FAM-cyclic-3′,5′-AMP (20 μM), PDE3 assay buffer, binding agent, binding agent diluent and microtiter 96-well plates. Compounds were initially dissolved in DMSO. The stock concentration was subsequently diluted in cPDE assay buffer (10× stock) and serially diluted to give a concentration response curve starting at 10 μM (≥7 total concentrations). Following the serial dilution, compound solution (0.1% final DMSO) was transferred to an assay plate (96-well) where the remaining canine PDE3A assay reagents were dispensed according to the BPS Bioscience® protocol (catalog #79735) procedure using a final concentration of 5 pg/μL of enzyme. Each compound was evaluated for the inhibition of the canine PDE3A enzyme activity using the measurement of fluorescent polarization changes. The 50% inhibition concentration (IC50) nM was calculated and reported.

Sequence of dog PDE3A recombinant enzyme (A0A8I3NYE0 1-1135): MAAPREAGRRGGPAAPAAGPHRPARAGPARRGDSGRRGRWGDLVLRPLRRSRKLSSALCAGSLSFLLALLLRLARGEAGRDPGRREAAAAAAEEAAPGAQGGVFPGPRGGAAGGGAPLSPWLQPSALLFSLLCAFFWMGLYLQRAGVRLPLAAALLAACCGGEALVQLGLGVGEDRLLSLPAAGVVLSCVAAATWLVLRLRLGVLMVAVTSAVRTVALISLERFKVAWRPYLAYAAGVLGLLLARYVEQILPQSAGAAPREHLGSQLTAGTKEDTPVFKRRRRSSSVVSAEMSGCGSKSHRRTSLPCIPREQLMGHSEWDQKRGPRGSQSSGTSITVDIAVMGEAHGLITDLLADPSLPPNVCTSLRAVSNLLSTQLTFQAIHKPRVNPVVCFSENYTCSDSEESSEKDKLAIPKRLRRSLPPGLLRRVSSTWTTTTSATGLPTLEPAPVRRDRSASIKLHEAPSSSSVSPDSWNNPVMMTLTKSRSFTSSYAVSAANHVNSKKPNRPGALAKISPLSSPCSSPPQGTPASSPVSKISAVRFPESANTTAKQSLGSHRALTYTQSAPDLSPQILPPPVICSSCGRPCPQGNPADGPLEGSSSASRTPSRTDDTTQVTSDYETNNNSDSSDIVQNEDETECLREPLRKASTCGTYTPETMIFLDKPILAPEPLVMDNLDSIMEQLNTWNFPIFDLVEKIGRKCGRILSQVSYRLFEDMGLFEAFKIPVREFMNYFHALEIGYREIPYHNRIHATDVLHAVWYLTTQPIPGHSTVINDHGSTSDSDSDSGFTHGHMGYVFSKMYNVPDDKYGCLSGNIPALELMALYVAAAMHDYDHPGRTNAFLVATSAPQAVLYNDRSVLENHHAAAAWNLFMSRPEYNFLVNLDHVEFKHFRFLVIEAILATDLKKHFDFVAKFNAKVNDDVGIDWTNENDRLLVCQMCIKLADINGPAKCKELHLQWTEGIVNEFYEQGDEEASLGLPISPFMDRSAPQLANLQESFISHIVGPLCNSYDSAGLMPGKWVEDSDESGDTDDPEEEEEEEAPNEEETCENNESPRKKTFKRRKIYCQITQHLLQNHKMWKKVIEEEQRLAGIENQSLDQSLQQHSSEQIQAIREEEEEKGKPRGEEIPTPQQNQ

IC50 [nM]	Compound
4	CC1CC(=O)NN=C1c1cc(Cl)c2nc(N)sc2c1 (centres unmarked) [Example #30, 6-(2-amino-4-chlorobenzo[d]thiazol-6-yl)-5-methyl-4,5-dihydropyridazin-3 (2H)-one]
5.5	CC1CC(=O)NN=C1c1cc(F)c2nc(N)sc2c1 (centres unmarked) [Example #31, 6-(2-amino-4-fluorobenzo[d]thiazol-6-yl)-5-methyl-4,5-dihydropyridazin-3 (2H)-one]
3.2	C[C@@H]1CC(=O)NN=C1c1cc(Cl)c2c(c1)C(C)(C)C(=O)N2 [Example #33, (R)-7-chloro-3,3-dimethyl-5-(4-methyl-6-oxo-1,4,5,6-tetrahydropyridazin-3-yl)indolin-2-one]
3.7	CNc1nc2c(F)cc(C3=NNC(=O)CC3C)cc2s1 (centres unmarked) [Example #34, 6-(4-fluoro-2-(methylamino)benzo[d]thiazol-6-yl)-5-methyl-4,5-dihydropyridazin-3 (2H)-one]
3.2	CC1CC(=O)NN=C1c1cc(Cl)c2[nH]c(=O)ccc2c1 (centres unmarked) [Example #35, 8-chloro-6-(4-methyl-6-oxo-1,4,5,6-tetrahydropyridazin-3-yl)quinolin-2 (1H)-one]
6.1	CC1CC(=O)NN=C1c1cc(F)c2nc(N3CC(O)C3)sc2c1 (centres unmarked) [Example #37, 6-(4-fluoro-2-(3-hydroxyazetidin-1-yl)benzo[d]thiazol-6-yl)-5-methyl-4,5-dihydropyridazin-3 (2H)-one]
7.4	CC1CC(=O)NN=C1c1cc(C#N)c2nc(N)sc2c1 (centres unmarked) [Example #38, 2-amino-6-(4-methyl-6-oxo-1,4,5,6-tetrahydropyridazin-3-yl)benzo[d]thiazole-4-carbonitrile]
10.5	CC1CC(=O)NN=C1c1cc(Cl)c2c(c1)CNC2=O (centres unmarked) [Example #39, 7-chloro-5-(4-methyl-6-oxo-1,4,5,6-tetrahydropyridazin-3-yl)isoindolin-1-one]
15.4	CC1CC(=O)NN=C1c1cc(Cl)c2c(c1)C(C)(C)NC2=O (centres unmarked) [Example #41, 7-chloro-3,3-dimethyl-5-(4-methyl-6-oxo-1,4,5,6-tetrahydropyridazin-3-yl)isoindolin-1-one]
16.2	CC1CC(=O)NN=C1c1cc(Cl)c2[nH]c(=O)n(C)c2c1 (centres unmarked) [Example #42, 4-chloro-1-methyl-6-(4-methyl-6-oxo-1,4,5,6-tetrahydropyridazin-3-yl)-1,3-dihydro-2H-benzo[d]imidazol-2-one]
4	Cc1n[nH]c2c(Cl)cc(C3=NNC(=O)CC3C)cc12 (centres unmarked) [Example #47, 6-(7-chloro-3-methyl-1H-indazol-5-yl)-5-methyl-4,5-dihydropyridazin-3 (2H)-one]
336	C[C@H]1CC(=O)NN=C1c1cc(Cl)c2c(c1)C(C)(C)NC2=O [Example #51, (S)-7-chloro-3,3-dimethyl-5-(4-methyl-6-oxo-1,4,5,6-tetrahydropyridazin-3-yl)isoindolin-2-one]

Further lines, the compound ahead of its results:

Compound	IC50 [nM]
COc1cc(-c2cc(C3=NNC(=O)CC3C)cc3c2NC(=O)CC3)ccn1 (centres unmarked) [Example #1, 8-(2-methoxypyridin-4-yl)-6-(4-methyl-6-oxo-1,4,5,6-tetrahydropyridazin-3-yl)-3,4-dihydroquinolin-2 (1H)-one]	29.2
CC1CC(=O)NN=C1c1cc2c(c(-c3nccs3)c1)NC(=O)CC2 (centres unmarked) [Example #2, 6-(4-methyl-6-oxo-1,4,5,6-tetrahydropyridazin-3-yl)-8-(thiazol-2-yl)-3,4-dihydroquinolin-2 (1H)-one]	23.5
CC1CC(=O)NN=C1c1cc(Br)c2c(c1)CCC(=O)N2 (centres unmarked) [Example #3, 8-bromo-6-(4-methyl-6-oxo-1,4,5,6-tetrahydropyridazin-3-yl)-3,4-dihydroquinolin-2 (1H)-one]	3.2
COc1ncc(-c2cc(C3=NNC(=O)CC3C)cc3c2NC(=O)CC3)s1 (centres unmarked) [Example #4, 8-(2-methoxythiazol-5-yl)-6-(4-methyl-6-oxo-1,4,5,6-tetrahydropyridazin-3-yl)-3,4-dihydroquinolin-2 (1H)-one]	24.8
CC1CC(=O)NN=C1c1ccc2nc(Nc3ccc(S(C)(=O)=O)cc3)n(C)c2c1 (centres unmarked) [Example #5, 5-methyl-6-(1-methyl-2-((4-(methylsulfonyl)phenyl)amino)-1H-benzo[d]imidazol-6-yl)-4,5-dihydropyridazin-3 (2H)-one]	4.9
O=C1Cc2cc(-c3ccc(=O)[nH]n3)cc(-c3ccc(Cl)cc3)c2N1 [Example #7, 7-(4-chlorophenyl)-5-(6-oxo-1,6-dihydropyridazin-3-yl)indolin-2-one]	40.6
CC1CC(=O)NN=C1c1cc(Cl)c2c(c1)C1(CC1)C(=O)N2 (centres unmarked) [Example #8, 7′-chloro-5′-(4-methyl-6-oxo-1,4,5,6-tetrahydropyridazin-3-yl)spiro[cyclopropane-1,3′-indolin]-2′-one]	3.9
O=C1CCc2cc(-c3ccc(=O)[nH]n3)cc(-c3ccc(Cl)cc3)c2N1 [Example #9, 8-(4-chlorophenyl)-6-(6-oxo-1,6-dihydropyridazin-3-yl)-3,4-dihydroquinolin-2 (1H)-one]	13.6
CC1CC(=O)NN=C1c1cc2c(c(-c3cccnc3)c1)NC(=O)CC2 (centres unmarked) [Example #13, 6-(4-methyl-6-oxo-1,4,5,6-tetrahydropyridazin-3-yl)-8-(pyridin-3-yl)-3,4-dihydroquinolin-2 (1H)-one]	44.4
Cc1cc(=O)[nH]nc1-c1cc(-c2cscn2)c2c(c1)C(C)(C)C(=O)N2 [Example #17, 3,3-dimethyl-5-(4-methyl-6-oxo-1,6-dihydropyridazin-3-yl)-7-(thiazol-4-yl)indolin-2-one]	62.4
COc1ccc(-c2cc(C3=NNC(=O)CC3C)cc3c2NC(=O)CCC3)cn1 (centres unmarked) [Example #18, 9-(6-methoxypyridin-3-yl)-7-(4-methyl-6-oxo-1,4,5,6-tetrahydropyridazin-3-yl)-1,3,4,5-tetrahydro-2H-benzo[b]azepin-2-one]	42.1
CC1(C)C(=O)Nc2c(F)cc(-c3ccc(=O)[nH]n3)cc21 [Example #27, 7-fluoro-3,3-dimethyl-5-(6-oxo-1,6-dihydropyridazin-3-yl)indolin-2-one]	38.3
CC1(C)C(=O)Nc2c(Br)cc(-c3ccc(=O)[nH]n3)cc21 [Example #32, 7-bromo-3,3-dimethyl-5-(6-oxo-1,6-dihydropyridazin-3-yl)indolin-2-one]	26.7
CC1CC(=O)NN=C1c1cc2c(c(Cl)c1F)NC(=O)C2(C)C (centres unmarked) [Example #36, 7-chloro-6-fluoro-3,3-dimethyl-5-(4-methyl-6-oxo-1,4,5,6-tetrahydropyridazin-3-yl)indolin-2-one]	3.6
CC1CC(=O)NN=C1c1cc(C#N)c2[nH]c(=O)ccc2c1 (centres unmarked) [Example #40, 6-(4-methyl-6-oxo-1,4,5,6-tetrahydropyridazin-3-yl)-2-oxo-1,2-dihydroquinoline-8-carbonitrile]	12
CC1CC(=O)NN=C1c1cc(F)c2c(c1)C1(CCC1)C(=O)N2 (centres unmarked) [Example #43, 7′-fluoro-5′-(4-methyl-6-oxo-1,4,5,6-tetrahydropyridazin-3-yl)spiro[cyclobutane-1,3′-indolin]-2′-one]	35.5
CC1(C)C(=O)Nc2c(Cl)cc(C3=NNC(=O)CC3)cc21 [Example #44, 7-chloro-3,3-dimethyl-5-(6-oxo-1,4,5,6-tetrahydropyridazin-3-yl)indolin-2-one]	94
CC1CC(=O)NN=C1c1cc(F)c2nc(NCc3cnn(C)c3)sc2c1 (centres unmarked) [Example #46, 6-(4-fluoro-2-(((1-methyl-1H-pyrazol-4-yl)methyl)amino)benzo[d]thiazol-6-yl)-5-methyl-4,5-dihydropyridazin-3 (2H)-one]	3.4
CC1CC(=O)NN=C1c1cc(F)c2c(c1)CC(=O)N2 (centres unmarked) [Example #50, 7-fluoro-5-(4-methyl-6-oxo-1,4,5,6-tetrahydropyridazin-3-yl)indolin-2-one]	4.9
CC1SC(=O)NN=C1c1cc2c(c(-c3ccc(S(C)(=O)=O)cc3)c1)NC(=O)C2 (centres unmarked) [Example #63, 6-methyl-5-(7-(4-(methylsulfonyl)phenyl)-2-oxoindolin-5-yl)-3,6-dihydro-2H-1,3,4-thiadiazin-2-one]	30.5
CC1SC(=O)NN=C1c1cc(Br)c2c(c1)CCC(=O)N2 (centres unmarked) [Example #65, 5-(8-bromo-2-oxo-1,2,3,4-tetrahydroquinolin-6-yl)-6-methyl-3,6-dihydro-2H-1,3,4-thiadiazin-2-one]	4.3
C[C@H]1SC(=O)NN=C1c1cc(Cl)c2c(c1)C(C)(C)CC(=O)N2 [Example #67, (6R)-5-(8-chloro-4,4-dimethyl-2-oxo-1,2,3,4-tetrahydroquinolin-6-yl)-6-methyl-3,6-dihydro-2H-1,3,4-thiadiazin-2-one]	48.3
CC1SC(=O)NN=C1c1cc(C#N)c2c(c1)CC(=O)N2 (centres unmarked) [Example #77, 5-(6-methyl-2-oxo-3,6-dihydro-2H-1,3,4-thiadiazin-5-yl)-2-oxoindoline-7-carbonitrile]	41.6
C[C@@H]1SC(=O)NN=C1c1cc(F)c2c(c1)CC(=O)N2 [Example #78, (S)-5-(7-fluoro-2-oxoindolin-5-yl)-6-methyl-3,6-dihydro-2H-1,3,4-thiadiazin-2-one]	7.8
CC1SC(=O)NN=C1c1cc(Cl)c2c(c1)CNC2=O (centres unmarked) [Example #79, 5-(7-chloro-1-oxoisoindolin-5-yl)-6-methyl-3,6-dihydro-2H-1,3,4-thiadiazin-2-one]	20.3
CC1SC(=O)NN=C1c1cc(Cl)c2c(c1)C(C)(C)NC2=O (centres unmarked) [Example #80, 5-(7-chloro-3,3-dimethyl-1-oxoisoindolin-5-yl)-6-methyl-3,6-dihydro-2H-1,3,4-thiadiazin-2-one]	20.6
